{"source": "ChEMBL document CHEMBL1153520", "about": "“A multivalent approach to the design and discovery of orally efficacious 5-HT4 receptor agonists” (J Med Chem, 2009)", "key": {"Rattus norvegicus [1]": {"test_system": "Rattus norvegicus", "experiment": "Induction of 5HT4 receptor-mediated relaxation of esophagus in intraduodenal dosed anesthetized Sprague-Dawley rat by digital sonomicrometry", "type": "functional, organism-based"}, "[2]": {"molecular_target": "5-hydroxytryptamine receptor 1D (Homo sapiens) (UniProt P28221)", "sequence (P28221 whole entry)": "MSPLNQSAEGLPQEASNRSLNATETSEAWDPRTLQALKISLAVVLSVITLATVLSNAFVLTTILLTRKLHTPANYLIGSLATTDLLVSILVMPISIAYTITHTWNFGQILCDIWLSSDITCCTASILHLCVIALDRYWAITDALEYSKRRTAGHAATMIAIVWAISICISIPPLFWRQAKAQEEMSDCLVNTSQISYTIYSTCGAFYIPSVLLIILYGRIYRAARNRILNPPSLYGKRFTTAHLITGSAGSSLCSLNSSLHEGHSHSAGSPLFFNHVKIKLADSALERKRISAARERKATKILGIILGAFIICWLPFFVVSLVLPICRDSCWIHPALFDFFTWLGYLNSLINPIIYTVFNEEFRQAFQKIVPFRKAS", "experiment": "Inhibition of 5HT1D receptor at 10 uM"}, "[3]": {"molecular_target": "5-hydroxytryptamine receptor 5A (Homo sapiens) (UniProt P47898)", "sequence (P47898 whole entry)": "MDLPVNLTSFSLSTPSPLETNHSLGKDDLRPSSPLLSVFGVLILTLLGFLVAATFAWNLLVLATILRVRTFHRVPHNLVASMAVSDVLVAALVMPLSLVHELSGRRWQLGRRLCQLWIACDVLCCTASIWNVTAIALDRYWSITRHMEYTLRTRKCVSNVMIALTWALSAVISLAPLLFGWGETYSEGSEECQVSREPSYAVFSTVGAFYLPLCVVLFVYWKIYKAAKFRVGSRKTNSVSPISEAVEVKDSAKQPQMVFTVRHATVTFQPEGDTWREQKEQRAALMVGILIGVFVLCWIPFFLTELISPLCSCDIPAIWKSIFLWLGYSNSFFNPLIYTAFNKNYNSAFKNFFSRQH", "experiment": "Inhibition of 5HT5A receptor at 10 uM"}, "Homo sapiens": {"organism": "Homo sapiens", "experiment": "Selectivity ratio of Ki for human 5HT3A receptor to Ki for human 5HT4C receptor"}, "[4]": {"molecular_target": "5-hydroxytryptamine receptor 2B (Homo sapiens) (UniProt P41595)", "sequence (P41595 whole entry)": "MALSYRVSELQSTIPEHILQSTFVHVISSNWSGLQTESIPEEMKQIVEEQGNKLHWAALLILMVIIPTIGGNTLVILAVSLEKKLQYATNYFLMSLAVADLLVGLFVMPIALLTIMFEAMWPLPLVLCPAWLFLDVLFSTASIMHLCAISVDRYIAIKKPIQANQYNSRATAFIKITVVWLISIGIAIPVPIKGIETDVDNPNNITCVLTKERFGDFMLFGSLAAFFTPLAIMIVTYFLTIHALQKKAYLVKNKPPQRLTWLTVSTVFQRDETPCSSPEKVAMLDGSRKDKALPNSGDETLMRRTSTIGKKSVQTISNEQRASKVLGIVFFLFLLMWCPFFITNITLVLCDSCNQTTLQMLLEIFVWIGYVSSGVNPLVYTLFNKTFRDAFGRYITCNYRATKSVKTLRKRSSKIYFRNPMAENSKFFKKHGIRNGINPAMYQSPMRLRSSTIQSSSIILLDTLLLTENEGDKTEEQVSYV", "experiment": "Inhibition of 5HT2B receptor at 10 uM"}, "Cavia porcellus [5]": {"test_system": "Cavia porcellus", "experiment": "Induction of colon longitudinal muscle contraction in sc dosed Duncan Hartley guinea pig", "type": "functional, organism-based", "conditions": "Muscle tissue"}, "[6]": {"molecular_target": "5-hydroxytryptamine receptor 2A (Homo sapiens) (UniProt P28223)", "sequence (P28223 whole entry)": "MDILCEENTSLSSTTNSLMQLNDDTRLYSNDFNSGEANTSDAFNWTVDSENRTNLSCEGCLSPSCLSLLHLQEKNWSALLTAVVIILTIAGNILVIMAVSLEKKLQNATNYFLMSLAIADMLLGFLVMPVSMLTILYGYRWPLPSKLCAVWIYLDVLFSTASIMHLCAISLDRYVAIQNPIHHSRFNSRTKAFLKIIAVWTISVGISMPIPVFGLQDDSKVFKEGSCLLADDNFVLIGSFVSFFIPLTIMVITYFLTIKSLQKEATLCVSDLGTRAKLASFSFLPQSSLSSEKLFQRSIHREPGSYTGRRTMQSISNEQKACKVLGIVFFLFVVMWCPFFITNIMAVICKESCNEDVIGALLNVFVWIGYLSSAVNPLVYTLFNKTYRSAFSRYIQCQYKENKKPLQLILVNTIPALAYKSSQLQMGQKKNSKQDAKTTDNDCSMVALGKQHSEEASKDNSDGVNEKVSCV", "experiment": "Inhibition of 5HT2A receptor at 10 uM"}, "[7]": {"experiment": "Cmax in Sprague-Dawley rat at 5 mg/kg, po", "type": "ADME, organism-based", "parameters": "dose 5 mg/kg, route oral", "conditions": "in vivo"}, "Rattus norvegicus [8]": {"test_system": "Rattus norvegicus", "experiment": "Induction of 5HT4 receptor-mediated relaxation of esophagus in anesthetized Sprague-Dawley rat at 3 mg/kg, intraduodenally by digital sonomicrometry", "type": "functional, organism-based", "parameters": "dose 3 mg/kg"}, "[9]": {"molecular_target": "5-hydroxytryptamine receptor 7 (Homo sapiens) (UniProt P34969)", "sequence (P34969 whole entry)": "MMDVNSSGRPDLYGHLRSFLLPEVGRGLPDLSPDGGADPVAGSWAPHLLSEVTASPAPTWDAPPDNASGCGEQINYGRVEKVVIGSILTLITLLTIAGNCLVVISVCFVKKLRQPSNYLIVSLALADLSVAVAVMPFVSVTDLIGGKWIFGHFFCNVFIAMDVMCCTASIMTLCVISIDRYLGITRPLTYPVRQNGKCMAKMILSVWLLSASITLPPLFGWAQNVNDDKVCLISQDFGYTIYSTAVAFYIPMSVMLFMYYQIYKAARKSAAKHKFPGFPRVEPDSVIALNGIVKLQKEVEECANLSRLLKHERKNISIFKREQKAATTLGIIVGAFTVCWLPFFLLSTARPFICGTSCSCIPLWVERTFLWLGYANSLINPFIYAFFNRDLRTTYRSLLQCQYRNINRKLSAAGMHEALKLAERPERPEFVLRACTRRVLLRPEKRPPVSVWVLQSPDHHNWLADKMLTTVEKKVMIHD", "experiment": "Inhibition of 5HT7 receptor at 10 uM"}, "[10]": {"experiment": "Oral bioavailability in Beagle dog at 2 mg/kg, po", "type": "ADME, organism-based, Canis lupus familiaris", "conditions": "in vivo"}, "Cavia porcellus [11]": {"test_system": "Cavia porcellus", "experiment": "Increase in colonic transit in Duncan Hartley guinea pig colonic transit model assessed as prokinetic activity at 3 mg/kg, sc relative to vehicle treated control", "type": "functional, organism-based", "parameters": "dose 3 mg/kg"}, "[12]": {"experiment": "Cmax in Beagle dog at 2 mg/kg, po", "type": "ADME, organism-based, Canis lupus familiaris", "parameters": "dose 2 mg/kg, route oral", "conditions": "in vivo"}, "[13]": {"experiment": "Permeability across human Caco-2 cells assessed as permeability coefficient", "type": "ADME, cell-based", "conditions": "read-out: permeability"}, "Rattus norvegicus [14]": {"test_system": "Rattus norvegicus", "experiment": "Induction of 5HT4 receptor-mediated relaxation of esophagus in iv dosed anesthetized Sprague-Dawley rat by digital sonomicrometry", "type": "functional"}, "[15]": {"experiment": "Half life in Sprague-Dawley rat at 5 mg/kg, po", "type": "ADME, organism-based", "parameters": "dose 5 mg/kg, route oral", "conditions": "in vivo"}, "hERG (KCNH2)": {"molecular_target": "hERG (KCNH2) (Homo sapiens, UniProt Q12809)", "sequence (Q12809 whole entry)": "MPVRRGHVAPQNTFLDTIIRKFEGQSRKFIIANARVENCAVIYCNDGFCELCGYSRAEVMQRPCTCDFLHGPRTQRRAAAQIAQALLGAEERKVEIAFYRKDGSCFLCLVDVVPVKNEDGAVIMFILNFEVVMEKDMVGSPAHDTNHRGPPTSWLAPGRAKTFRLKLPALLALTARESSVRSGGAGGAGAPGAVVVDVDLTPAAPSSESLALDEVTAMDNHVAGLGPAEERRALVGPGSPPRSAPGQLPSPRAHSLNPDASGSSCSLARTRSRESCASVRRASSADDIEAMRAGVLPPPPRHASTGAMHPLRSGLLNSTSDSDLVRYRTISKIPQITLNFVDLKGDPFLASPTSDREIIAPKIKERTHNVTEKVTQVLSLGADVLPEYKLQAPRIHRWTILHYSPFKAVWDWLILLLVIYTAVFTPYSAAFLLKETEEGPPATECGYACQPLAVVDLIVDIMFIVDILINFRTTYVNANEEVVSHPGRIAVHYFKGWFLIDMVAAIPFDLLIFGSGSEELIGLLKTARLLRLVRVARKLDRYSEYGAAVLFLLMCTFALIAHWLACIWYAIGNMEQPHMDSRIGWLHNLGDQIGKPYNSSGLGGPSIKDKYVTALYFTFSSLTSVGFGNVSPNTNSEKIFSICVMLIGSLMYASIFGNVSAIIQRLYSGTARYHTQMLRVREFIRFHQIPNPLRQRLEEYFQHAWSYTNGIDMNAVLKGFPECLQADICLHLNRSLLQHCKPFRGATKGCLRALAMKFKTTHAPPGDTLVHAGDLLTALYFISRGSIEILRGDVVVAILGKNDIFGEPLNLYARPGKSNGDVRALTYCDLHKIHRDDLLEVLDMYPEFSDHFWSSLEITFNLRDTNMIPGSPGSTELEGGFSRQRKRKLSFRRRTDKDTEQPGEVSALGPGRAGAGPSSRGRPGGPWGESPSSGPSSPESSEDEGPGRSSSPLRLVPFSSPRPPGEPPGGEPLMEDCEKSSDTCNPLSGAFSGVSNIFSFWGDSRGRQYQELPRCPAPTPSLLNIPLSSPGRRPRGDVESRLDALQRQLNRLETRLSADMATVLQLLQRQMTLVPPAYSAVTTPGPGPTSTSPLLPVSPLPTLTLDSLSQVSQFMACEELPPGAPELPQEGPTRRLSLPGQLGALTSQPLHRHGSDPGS", "experiment": "Inhibition of human ERG potassium channel expressed in CHO-K1 cells at 3 uM by whole cell voltage clamp assay", "type": "cell-based", "conditions": "CHO-K1 cells expressing human ERG potassium channel"}, "[16]": {"molecular_target": "T1, 5-hydroxytryptamine receptor 4 (Homo sapiens, UniProt Q13639)", "T1 sequence (Q13639 whole entry)": "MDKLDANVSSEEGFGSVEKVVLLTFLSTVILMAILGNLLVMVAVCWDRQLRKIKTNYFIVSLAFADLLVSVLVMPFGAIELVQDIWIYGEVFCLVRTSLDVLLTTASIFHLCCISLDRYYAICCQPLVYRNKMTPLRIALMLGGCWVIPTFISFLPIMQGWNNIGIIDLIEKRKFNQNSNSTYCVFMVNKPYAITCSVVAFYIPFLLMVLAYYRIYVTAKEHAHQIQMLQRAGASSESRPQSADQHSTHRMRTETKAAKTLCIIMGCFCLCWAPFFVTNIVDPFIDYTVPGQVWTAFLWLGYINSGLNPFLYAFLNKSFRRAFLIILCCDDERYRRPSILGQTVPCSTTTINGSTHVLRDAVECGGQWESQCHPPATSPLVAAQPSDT", "experiment": "Displacement of [H]GR-113808 from human 5HT4C receptor expressed in HEK293 cells by liquid scintillation counting", "type": "cell-based"}, "[17]": {"experiment": "AUC (0 to t) in Sprague-Dawley rat at 5 mg/kg, po", "type": "ADME, organism-based", "parameters": "dose 5 mg/kg, route oral", "conditions": "plasma"}, "[18]": {"molecular_target": "T2, 5-hydroxytryptamine receptor 2C (Homo sapiens) (UniProt P28335)", "T2 sequence (whole entry)": "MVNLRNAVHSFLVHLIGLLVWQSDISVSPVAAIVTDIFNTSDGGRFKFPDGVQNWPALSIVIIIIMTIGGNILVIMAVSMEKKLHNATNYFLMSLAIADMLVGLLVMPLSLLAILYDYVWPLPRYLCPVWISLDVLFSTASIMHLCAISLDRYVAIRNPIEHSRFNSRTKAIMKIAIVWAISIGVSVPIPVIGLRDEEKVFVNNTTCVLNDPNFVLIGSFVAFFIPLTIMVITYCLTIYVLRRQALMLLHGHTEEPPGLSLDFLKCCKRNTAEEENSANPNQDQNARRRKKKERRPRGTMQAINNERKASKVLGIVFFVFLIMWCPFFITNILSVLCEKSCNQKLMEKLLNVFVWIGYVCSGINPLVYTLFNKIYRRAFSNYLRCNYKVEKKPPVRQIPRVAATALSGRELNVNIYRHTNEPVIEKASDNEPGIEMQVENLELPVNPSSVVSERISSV", "experiment": "Inhibition of 5HT1C receptor at 10 uM"}, "[19]": {"molecular_target": "5-hydroxytryptamine receptor 6 (Homo sapiens) (UniProt P50406)", "sequence (P50406 whole entry)": "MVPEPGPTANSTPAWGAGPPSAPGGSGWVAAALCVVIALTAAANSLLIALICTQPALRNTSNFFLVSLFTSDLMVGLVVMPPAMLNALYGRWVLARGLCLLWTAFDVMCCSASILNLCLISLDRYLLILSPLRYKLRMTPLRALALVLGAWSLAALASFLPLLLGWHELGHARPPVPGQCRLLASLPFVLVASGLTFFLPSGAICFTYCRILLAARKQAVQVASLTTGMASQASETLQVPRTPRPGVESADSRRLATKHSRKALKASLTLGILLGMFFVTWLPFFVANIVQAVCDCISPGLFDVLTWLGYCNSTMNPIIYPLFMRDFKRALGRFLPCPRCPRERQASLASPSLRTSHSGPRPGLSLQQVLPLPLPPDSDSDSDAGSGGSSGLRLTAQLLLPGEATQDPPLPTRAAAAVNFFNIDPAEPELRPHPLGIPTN", "experiment": "Inhibition of 5HT6 receptor at 10 uM"}, "[20]": {"molecular_target": "T1, 5-hydroxytryptamine receptor 4", "experiment": "Intrinsic activity at human 5HT4C receptor expressed in HEK293 cells assessed as accumulation of cAMP by flash plate adenylyl cyclase activation assay relative to serotonin", "type": "functional, cell-based"}, "[21]": {"molecular_target": "T1, 5-hydroxytryptamine receptor 4", "experiment": "Agonist activity at human 5HT4C receptor expressed in HEK293 cells assessed as accumulation of cAMP by flash plate adenylyl cyclase activation assay", "type": "functional, cell-based"}, "[22]": {"experiment": "Oral bioavailability in Sprague-Dawley rat at 5 mg/kg, po", "type": "ADME, organism-based", "conditions": "in vivo"}, "in vitro": {"experiment": "in vitro", "conditions": "rat, liver microsomes"}, "[23]": {"molecular_target": "T3, 5-hydroxytryptamine receptor 1A (Homo sapiens) (UniProt P08908)", "T3 sequence (whole entry)": "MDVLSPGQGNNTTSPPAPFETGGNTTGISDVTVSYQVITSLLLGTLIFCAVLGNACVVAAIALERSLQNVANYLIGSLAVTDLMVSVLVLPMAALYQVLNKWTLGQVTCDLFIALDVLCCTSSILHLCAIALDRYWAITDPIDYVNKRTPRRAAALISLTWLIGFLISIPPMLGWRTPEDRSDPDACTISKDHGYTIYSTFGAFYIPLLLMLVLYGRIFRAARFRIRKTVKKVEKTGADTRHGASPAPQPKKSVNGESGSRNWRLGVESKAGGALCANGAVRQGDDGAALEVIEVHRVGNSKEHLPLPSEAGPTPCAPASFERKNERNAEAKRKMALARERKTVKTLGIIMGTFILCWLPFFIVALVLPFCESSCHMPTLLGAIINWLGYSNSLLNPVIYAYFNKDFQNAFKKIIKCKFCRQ", "experiment": "Inhibition of 5HT1A receptor at 10 uM"}, "[24]": {"molecular_target": "T2, 5-hydroxytryptamine receptor 2C (Homo sapiens)", "experiment": "Inhibition of 5HT2C receptor at 10 uM"}}, "note": "Calls of active or inactive are those of the source. The calls are words filed in the database; no cut-off is given here."}
{"compound": "CC(C)n1c(=O)c(C(=O)N[C@H]2C[C@H]3CC[C@@H](C2)N3C[C@@H](O)CN2CCN(S(C)(=O)=O)CC2)cc2ccccc21", "values": [{"measurement": "Activity", "setting": "Rattus norvegicus [1]", "value": "Dose-dependent effect"}, {"measurement": "inhibition", "setting": "[2]", "value": "< 50", "unit": "%"}, {"measurement": "inhibition", "setting": "[3]", "value": "< 50", "unit": "%"}, {"measurement": "Ratio Ki", "setting": "Homo sapiens", "value": 7400}, {"measurement": "inhibition", "setting": "[4]", "value": "< 50", "unit": "%"}, {"measurement": "EC50", "setting": "Cavia porcellus [5]", "value": 2.51, "unit": "nM"}, {"measurement": "inhibition", "setting": "[6]", "value": "< 50", "unit": "%"}, {"measurement": "Cmax", "setting": "[7]", "value": 31, "unit": "ng/mL"}, {"measurement": "Activity", "setting": "Rattus norvegicus [8]", "value": "Active"}, {"measurement": "inhibition", "setting": "[9]", "value": "< 50", "unit": "%"}, {"measurement": "bioavailability", "setting": "[10]", "value": 63, "unit": "%"}, {"measurement": "Activity", "setting": "Cavia porcellus [11]", "value": "Active"}, {"measurement": "Cmax", "setting": "[12]", "value": 320, "unit": "ng/mL"}, {"measurement": "Papp", "setting": "[13]", "value": 14, "unit": "×10⁻⁶ cm/s"}, {"measurement": "Activity", "setting": "Rattus norvegicus [14]", "value": "Dose-dependent effect"}, {"measurement": "ED50", "setting": "Rattus norvegicus [14]", "value": 0.016, "unit": "mg/kg"}, {"measurement": "half-life", "setting": "[15]", "value": 5.2, "unit": "h"}, {"measurement": "inhibition at 3 µM", "setting": "hERG (KCNH2)", "value": 4, "unit": "%"}, {"measurement": "Ki", "setting": "[16]", "value": 12.6, "unit": "nM"}, {"measurement": "AUC(0-t)", "setting": "[17]", "value": 200, "unit": "ng·h/mL"}, {"measurement": "inhibition", "setting": "[18]", "value": "< 50", "unit": "%"}, {"measurement": "inhibition", "setting": "[19]", "value": "< 50", "unit": "%"}, {"measurement": "Intrinsic activity", "setting": "[20]", "value": 94, "unit": "%"}, {"measurement": "EC50", "setting": "[21]", "value": 0.398, "unit": "nM"}, {"measurement": "bioavailability", "setting": "[22]", "value": 20, "unit": "%"}, {"measurement": "half-life", "setting": "in vitro", "value": "> 1.5", "unit": "h"}, {"measurement": "inhibition", "setting": "[23]", "value": "< 50", "unit": "%"}, {"measurement": "inhibition", "setting": "[24]", "value": "< 50", "unit": "%"}]}
